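How tested: cells in 96-well plates exposed to compound for 48 hours at five concentrations. Abbreviation: GI50, concentration required for 50% inhibition of growth.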 Activity calls are given as the source filed them. Rule as the data show it: active = GI50 up to about 1.1 µM and inactive = higher.
Assays:
Test in all cases: growth of human tumour cells (NCI), 48 h
[1] = tested on: NCI-H460
[2] = tested on: HL-60
[3] = tested on: KM12
[4] = tested on: SF-539
[5] = tested on: SK-OV-3
[6] = tested on: MDA-MB-435
[7] = tested on: UO-31
[8] = tested on: RPMI-8226
[9] = tested on: PC-3
[10] = tested on: M14
[11] = tested on: HOP-92
[12] = tested on: SN12C
[13] = tested on: RXF 393
[14] = tested on: A549
[15] = tested on: U-251
[16] = tested on: NCI-H522
[17] = tested on: HOP-62
[18] = tested on: OVCAR-3
[19] = tested on: MDA-N

Measured: GI50

N#CC(C#N)=C/C=C(\Sc1c(Cl)c(Cl)nc(Cl)c1Cl)c1ccc(Cl)cc1
inactive: [1] 26.4 µM | [2] 10.8 µM | [3] 19.1 µM | [4] 19.4 µM | [5] 24.4 µM | [6] 5.4 µM | [7] 29.8 µM | [8] 4.1 µM | [9] 30 µM | [10] 19.5 µM | [11] 26.5 µM | [12] 20.8 µM | [13] 18.5 µM | [14] > 100 µM | [15] 16.8 µM | [16] 18.8 µM | [17] 29.2 µM | [18] 11.6 µM

COCN1C(=O)[C@@H]2CCCN2C(=O)c2ccc([N+](=O)[O-])cc21
inactive: [1] > 100 µM | [2] 87.5 µM | [3] > 100 µM | [4] > 100 µM | [5] > 100 µM | [6] > 100 µM | [7] > 100 µM | [8] > 100 µM | [9] > 100 µM | [10] > 100 µM | [11] > 100 µM | [12] > 100 µM | [13] > 100 µM | [14] > 100 µM | [15] > 100 µM | [16] > 100 µM | [17] > 100 µM | [18] > 100 µM

CCOC(=O)/C=C/[C@@H](CC)O[Si](C(C)C)(C(C)C)C(C)C
inactive: [1] > 100 µM | [3] > 100 µM | [4] > 100 µM | [5] > 100 µM | [6] > 100 µM | [7] > 100 µM | [8] 50.6 µM | [9] 61.7 µM | [11] > 100 µM | [19] > 100 µM | [14] > 100 µM | [15] > 100 µM | [16] > 100 µM | [17] 67.6 µM | [18] > 100 µM

O=C(/C=C/c1cccc([N+](=O)[O-])c1)N1CCN(CCOC(c2ccccc2)c2ccccc2)CC1
inactive: [1] 25.9 µM | [3] 26.9 µM | [5] > 100 µM | [6] 33.4 µM | [7] 33.1 µM | [8] 12.3 µM | [10] 32.9 µM | [11] 16.6 µM | [19] 37.3 µM | [12] 57.5 µM | [13] 34.4 µM | [14] 45.7 µM | [16] 24.5 µM | [17] > 100 µM | [18] 66.1 µM

O=c1[nH]c2ccc(O)cc2o1
inactive: [1] > 100 µM | [2] > 100 µM | [3] > 100 µM | [4] > 100 µM | [5] > 100 µM | [7] > 100 µM | [9] > 100 µM | [10] > 100 µM | [19] > 100 µM | [12] > 100 µM | [13] 2.49 µM | [14] > 100 µM | [15] > 100 µM | [16] > 100 µM | [17] > 100 µM | [18] > 100 µM

COc1cc(C[S+]2CCCC2)c(SC)cc1C[S+]1CCCC1
inactive: [1] > 100 µM | [2] > 100 µM | [3] > 100 µM | [4] > 100 µM | [5] > 100 µM | [7] > 100 µM | [8] > 100 µM | [10] > 100 µM | [11] > 100 µM | [12] > 100 µM | [13] > 100 µM | [14] > 100 µM | [15] > 100 µM | [16] > 100 µM | [17] > 100 µM | [18] > 100 µM
